Consider ten molecules from patent US10548899B2, “Quinazolinone and benzotriazinone compounds with cholinergic muscarinin M1 receptor positive allosteric modulator activity” (TAKEDA PHARMACEUTICAL COMPANY LIMITED, priority 2015, dated 2020).

The test deals with T1, human M1 receptor (hCHRM1) (Homo sapiens, UniProt P11229).
T1 construct: expressed in transfected cells; host or cells: CHO-K1
T1 sequence (P11229 1-460): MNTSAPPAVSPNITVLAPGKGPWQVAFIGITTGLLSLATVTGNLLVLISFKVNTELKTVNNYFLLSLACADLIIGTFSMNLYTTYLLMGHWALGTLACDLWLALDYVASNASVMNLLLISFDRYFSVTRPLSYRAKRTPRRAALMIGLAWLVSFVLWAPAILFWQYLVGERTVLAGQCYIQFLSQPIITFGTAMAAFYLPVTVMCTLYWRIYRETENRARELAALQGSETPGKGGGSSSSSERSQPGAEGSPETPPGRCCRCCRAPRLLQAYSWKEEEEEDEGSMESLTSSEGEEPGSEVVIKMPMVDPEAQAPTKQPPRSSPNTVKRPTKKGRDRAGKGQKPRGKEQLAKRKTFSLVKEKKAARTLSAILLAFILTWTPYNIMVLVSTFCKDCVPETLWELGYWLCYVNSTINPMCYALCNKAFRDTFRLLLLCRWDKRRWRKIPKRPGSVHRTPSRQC
The experiment in a line: Measurement of M1 receptor positive allosteric modulator (M1PAM) activity (calcium fluorescence, Fluo-4, FDSS). The class given is cell-based. As to conditions: for activity (%) at 10 μM: 10 μM test compound, acetylcholine EC20 (final 0.8 nM) present, 100% = acetylcholine 1 μM, 0% = DMSO, CHO-K1 hCHRM1 cells; for EC50: inflection point of concentration-dependent curve, CHO-K1 cells stably expressing hCHRM1, in presence of acetylcholine at EC20 concentration (final 0.8 nM), read-out: IP value. Here is the method: Measurement of M1 receptor positive allosteric modulator (M1PAM) activity
The activity of a test compound in the presence of acetylcholine at EC20 concentration (final concentration 0.8 nM), which affords an action corresponding to about 20% of the maximum activity, was measured as PAM activity. The method is as follows. CHO-K1 cells stably expressing a human M1 receptor (hCHRM1) were plated on a 384-well black clear bottom plate (BD Falcon) at 5,000 cells/well, and cultured in an incubator at 37° C., 5% CO2 for 1 day. The medium in the cell plate was removed, and assay buffer A containing a calcium indicator (Recording medium (DOJINDO LABORATORIES), 0.1% BSA (Wako Pure Chemical Industries, Ltd.), 2.5 μg/mL Fluo-4 AM (DOJINDO LABORATORIES), 0.08% Pluronic F127 (DOJINDO LABORATORIES) and 1.25 mM probenecid (DOJINDO LABORATORIES) were added at 30 μL/well. The cells were left standing in the incubator at 37° C., 5% CO2 for 30 min, and further left standing at room temperature for 30 min. A test compound prepared by diluting with assay buffer B (HESS (Invitrogen), 20 mM HEPES (Invitrogen), 0.1% BSA) containing 3.2 nM acetylcholine was added at 10 μL/well, and the fluorescence was measured by FDSS/μcell (Hamamatsu Photonics K.K.) for 1 min every for 1 second. With the definition that the amount of change in the fluorescence on addition of acetylcholine (final concentration 1 μM) is 100% and that on addition of DMSO instead of a test compound is 0%, the activity (%) of the test compound was calculated, and the inflection point in the concentration-dependent curve of the test compound was calculated as IP values.

Structures can show the parent of a compound that is named as a salt.

On to `Cc1c(Cc2ccc(-c3cnn(C)c3)nc2)cc2c(=O)n(CC3CCCO3)cnc2c1Cl` (centres unmarked) [Example 25, 8-chloro-7-methyl-6-((6-(1-methyl-1H-pyrazo-4-yl)pyridin-3-yl)methyl)-3-(tetrahydrofuran-2-ylmethyl)quinazolin-4(3H)-one hydrochloride], for which the “activity (%) at 10 μM” value is 95% and the EC50 turned out to be 62 nM.

Turning to `Cc1c(Cc2ccc(-n3cccn3)cc2)cc2c(=O)n([C@H]3COCC[C@@H]3O)cnc2c1F` [Example 38, 8-fluoro-3-((3S,4S)-4-hydroxytetrahydro-2H-pyran-3-yl)-7-methyl-6-(4-(1H-pyrazol-1-yl)benzyl)quinazolin-4(3H)-one], the “activity (%) at 10 μM” value came out at 100% and the EC50 worked out at 17 nM.

As for `Cc1c(Cc2ccc(-c3cnn(C)c3)nc2)cc2c(=O)n(CC3CCCO3)nnc2c1C` (centres unmarked) [Example 39, 7,8-dimethyl-6-((6-(1-methyl-1H-pyrazol-4-yl)pyridin-3-yl)methyl)-3-(tetrahydrofuran-2-ylmethyl)-1,2,3-benzotriazin-4(3H)-one], the “activity (%) at 10 μM” value stood at 97% and the EC50 turned out to be 85 nM.

As to `Cc1c(Cc2ccc(-n3cccn3)cc2)cc2c(=O)n([C@H]3COCC[C@@H]3O)nnc2c1C` [Example 41, 3-((3S,4S)-4-hydroxytetrahydro-2H-pyran-3-yl)-7,8-dimethyl-6-(4-(1H-pyrazol-1-yl)benzyl)-1,2,3-benzotriazin-4(3H)-one], the “activity (%) at 10 μM” value turned out to be 101% and the EC50 was 29 nM.

As for `Cc1c(Cc2ccc(-n3cccn3)cc2)cc2c(=O)n([C@H]3COCC[C@@H]3O)nnc2c1C` [Example 43, 3-((3S,4S)-4-hydroxytetrahydro-2H-pyran-3-yl)-7,8-dimethyl-6-(4-(1H-pyrazol-1-yl)benzyl)-1,2,3-benzotriazin-4(3H)-one], the “activity (%) at 10 μM” value amounted to 100% and the EC50 was 14 nM.

On to `Cc1c(Cc2ccc(-n3cccn3)nc2)cc2c(=O)n([C@H]3COCC[C@@H]3O)nnc2c1C` [Example 44, 3-[(3S,4S)-4-hydroxytetrahydro-2H-pyran-3-yl]-7,8-dimethyl-6-{[6-(1H-pyrazol-1-yl)pyridin-3-yl]methyl}-1,2,3-benzotriazin-4(3H)-one], for which the “activity (%) at 10 μM” value was 100% and the EC50 is 32 nM.

Turning to `Cc1c(Cc2ccc(-c3ccn(C)n3)nc2)cc2c(=O)n(CC3CCCO3)nnc2c1Cl` (centres unmarked) [Example 45, 8-chloro-7-methyl-6-((6-(1-methyl-1H-pyrazol-3-yl)pyridin-3-yl)methyl)-3-(tetrahydrofuran-2-ylmethyl)1,2,3-benzotriazin-4(3H)-one], the “activity (%) at 10 μM” value is recorded as 95% and the EC50 came out at 25 nM.

Consider `Cc1c(Cc2ccc(-c3ccn(C)n3)cc2)cc2c(=O)n([C@H]3COCC[C@@H]3O)nnc2c1C` [Example 47, 3-((3S,4S)-4-hydroxytetrahydro-2H-pyran-3-yl)-7,8-dimethyl-6-(4-(1-methyl-1H-pyrazol-3-yl)benzyl)-1,2,3-benzotriazin-4(3H)-one], for which the “activity (%) at 10 μM” value is 95% and the EC50 is 38 nM.

With `Cc1cc2nnn([C@H]3COCC[C@@H]3O)c(=O)c2cc1Cc1ccc(-c2ccn(C)n2)cc1` [Example 48, 3-((3S,4S)-4-hydroxytetrahydro-2H-pyran-3-yl)-7-methyl-6-(4-(1-methyl-1H-pyrazol-3-yl)benzyl)-1,2,3-benzotriazin-4(3H)-one], the “activity (%) at 10 μM” value is reported as 98% and the EC50 turned out to be 59 nM.

Turning to `Cc1c(Cc2ccc(-n3cccn3)cc2)cc2c(=O)n([C@H]3COCC[C@@H]3O)nnc2c1F` [Example 49, 8-fluoro-3-((3S,4S)-4-hydroxytetrahydro-2H-pyran-3-yl)-7-methyl-6-(4-(1H-pyrazol-1-yl)benzyl)-1,2,3-benzotriazin-4(3H)-one], the “activity (%) at 10 μM” value is on record as 97% and the EC50 is 18 nM.
